Data on three compounds can be found in US10619210B2, “Predicting response to epigenetic drug therapy” (THE JOHNS HOPKINS UNIVERSITY, priority 2014, dated 2020).

SMILES strings stand for the structures.

What all share (type): cell-based, human
In assay [1] the test system is colorectal cancer cell lines. As to the kind of experiment: AZA-induced immune gene demethylation and re-expression, colorectal cancer cell lines. The text has this: (§1) The canonical effects of AZA have traditionally been described as demethylation of promoter regions and subsequent expression of the silenced gene. Many of the pathway changes in response to AZA, such as increased expression of immune genes, may be the result of downstream events elicited by a small number of hubs related to promoter DNA demethylation and associated gene upregulation. We investigated hub networks in our current pan-cancer analyses by first searching, in a genome-wide analysis using the Infinium 450K methylation platform, for genes that have AZA-induced demethylation of cancer-specific, DNA hypermethylated, CpG islands associated with proximal promoter regions. The total number of such demethylated genes in the cell lines from breast, ovarian and colorectal cancers was 162 (FIG. 8A). […]
(§2) All data were analyzed using R: A Language and Environment for Statistical Computing. […] These normalized values were then analyzed utilizing the Gene Set Enrichment Analysis by the Broad Institute and data packages (C5BP, Reactome, KEGG). […] TCGA HumanMethylation27K level 3 data was downloaded, standard deviation of Infinium β-values across all primary cancer samples were calculated, and the top one thousand most variable probes were chosen for hierarchical cluster analysis. […]

Assay [2] has as its system 63 cancer cell lines (26 breast, 14 colorectal, and 23 ovarian). Kind of assay: GSEA gene sets common to 63 cancer cell lines (breast, colorectal, ovarian) after AZA. How it is done:
(§3) In the context of the above background, we explored further our understanding of the global pathway changes after treatment with low doses of the DNMTi AZA in cell lines from multiple common human cancers. A total of 63 cancer cell lines (26 breast, 14 colorectal, and 23 ovarian) were treated with low dose, 500 nM, AZA for three days. DNA and RNA were isolated at multiple time points following initial drug application and analyzed for genome-wide changes in DNA methylation and gene expression (Agilent 44K Expression Array). […] These gene sets could be broadly divided into four categories including cell cycle control (cell cycle, mitosis, meiosis), DNA replication (DNA replication and packaging, transcription), mRNA splicing and translation, and immune response (FIG. 1C,D; Tables 2 and 3). […] See also FIG. 1A. […] See also FIG. 1B.
63 cell lines (26 breast cancer, 14 colorectal cancer, 23 ovarian cancer) were used in these experiments. Breast cell lines included BT20, BT474, CAMA1, EFM19, MDA453, MDA468, MDA361, MCF7, MDA231, T47D, HCC1500, and HCC1187 obtained from the American Type Tissue Collection; HCC1419, HCC38, EFM192A, HCC1569, HCC1937, HCC1954, MDA175, MDA415, MDA436, SUM149, SUM159, SKBR3, ZR751, and ZR7530 from Dr. Dennis Slamon. All cells were maintained under recommended conditions. Colorectal cell lines were all obtained from the American Type Tissue Collection and were maintained under recommended conditions. These included CACO-2, Colo201, Colo205, Colo320, DLD1, HCT116, HT29, Lovo, RKO, SK-CO1, SNUC-1, SW48, SW480, and SW620. Ovarian cell lines were obtained from the laboratory of Dr. Dennis Slamon and included A2780, CAOV3, DOV13, EFO27, ES2, Hey, HEYC2, Kuramochi, OAW28, OAW42, OV167, OV2008, OV90, OVCA429, OVCA432, OVMANA, OVCAR3, OVCAR5, OVKATE, PEO14, SKOV3, TOV112D, and TykNu; these were maintained under the ATCC recommended conditions.
Cell lines were treated with 500 nM of AZA or carboplatin (Sigma; St. Louis, Mo.) for 72 hours while in log-growth phase, changing the media and drug every 24 hours for AZA treatment. To select an appropriate chemotherapy control, the carboplatin dose that had the similar growth inhibitory effect to 500 nM AZA after 10 days was selected. Cells were harvested at 1, 3, 7, 10, 14, 21, or 28 days following initial application of drug. […]
as §2

Assay [3] concerns breast cancer cell lines. Kind of assay: GSEA of Agilent 44K expression arrays after low-dose AZA, breast cancer cell lines. As for the experimental part: as §3, with “1B. […]” for “1B.”
as §2

In assay [4] the test system is ovarian cancer cell lines. As to the kind of experiment: AZA-induced immune gene demethylation and re-expression, ovarian cancer cell lines.
From the text: as §1, §2

Another assay has as its system lung cancer cell lines. Kind of assay: GSEA of lung cancer cell lines treated with the same AZA dosing schedule. Particulars: 14 lung cancer cell lines.
Assay [5] deals with cell lines from breast, ovarian and colorectal cancers. As to the kind of experiment: AZA-induced promoter CpG island demethylation and re-expression (Infinium 450K), all three cancer types. The source says:
The canonical effects of AZA have traditionally been described as demethylation of promoter regions and subsequent expression of the silenced gene. Many of the pathway changes in response to AZA, such as increased expression of immune genes, may be the result of downstream events elicited by a small number of hubs related to promoter DNA demethylation and associated gene upregulation. We investigated hub networks in our current pan-cancer analyses by first searching, in a genome-wide analysis using the Infinium 450K methylation platform, for genes that have AZA-induced demethylation of cancer-specific, DNA hypermethylated, CpG islands associated with proximal promoter regions. The total number of such demethylated genes in the cell lines from breast, ovarian and colorectal cancers was 162 (FIG. 8A). […] The highest percentages of these demethylation and re-expression events were again seen in immune genes; 26%, of the 162 genes were categorized as immune related (FIG. 8B,C). Overall, immune gene demethylation and re-expression was again highest in ovarian cancer cell lines (53.8%) followed by colorectal (42.8%) and breast (30.7%) cancer cell lines (FIG. 8B). Of note, amongst these 162 genes, 8 (4.9%) were also in our AIM gene set (BNIP3, HERC5, ICAM1, IRF7, MX1, MST1R, PSMB8, TCRIG1) with IRF7, a member of the interferon regulatory factor family of transcription factors in particular being notable for being a canonical demethylated and reexpressed gene.
Cell lines were treated with 500 nM of AZA or carboplatin (Sigma; St. Louis, Mo.) for 72 hours while in log-growth phase, changing the media and drug every 24 hours for AZA treatment. To select an appropriate chemotherapy control, the carboplatin dose that had the similar growth inhibitory effect to 500 nM AZA after 10 days was selected. Cells were harvested at 1, 3, 7, 10, 14, 21, or 28 days following initial application of drug. DNA and RNA were obtained using standard protocols. RNA from 63 cell lines was sent for the Agilent 44K Expression Array and DNA from 53 cell lines was sent for the Illumina 450K Methylation Array.
All data were analyzed using R: A Language and Environment for Statistical Computing. Expression normalization of cell line data was performed using the package Limma as previously described. Data was normalized within each tumor type (breast, colorectal, and ovarian). These normalized values were then analyzed utilizing the Gene Set Enrichment Analysis by the Broad Institute and data packages (C5BP, Reactome, KEGG). […] TCGA HumanMethylation27K level 3 data was downloaded, standard deviation of Infinium β-values across all primary cancer samples were calculated, and the top one thousand most variable probes were chosen for hierarchical cluster analysis. […]

Assay [6] relates to breast cancer cell lines. Kind of assay: AZA-induced immune gene demethylation and re-expression, breast cancer cell lines.
From the text: as §1, §2

Assay [7] relates to colorectal cancer cell lines. Kind of assay: GSEA of Agilent 44K expression arrays after low-dose AZA, colorectal cancer cell lines. How it is done:
as §3, with “1B. […]” for “1B.”
as §2

For assay [8], the system named is ovarian cancer cell lines. Kind of assay: GSEA of Agilent 44K expression arrays after low-dose AZA, ovarian cancer cell lines. As for the experimental part:
as §3, with “1B. […]” for “1B.”
as §2

Assay [9] deals with HCC1569, ZR751, COLO201, HT29, A2780 and TYKNU cells. As to the kind of experiment: qRT-PCR validation of AIM genes in two cell lines from each cancer type. Particulars: two cell lines per cancer type. (Quantitative PCR measures a nucleic acid by following its amplification.)
Description: After total cellular RNA was extracted using the Trizol method (Life Technologies, Carlsbad, Calif.), RNA concentration was determined using the Nanodrop machine and software (Thermo Fisher Scientific, Rockville, Md.). 1 μg total RNA was used to generate cDNA with the QuantiTect Reverse Transcription Kit (Qiagen, Venlo, Netherlands). Quantitative reverse transcription PCR (q-RT-PCR) of CD274, DDX58, HLA-C, IFI6, IFI27, IL-15, IRF7, IRF9, MAEL, and MAGEB2 mRNA was performed using TaqMan assays (Life Technologies, Carlsbad, Calif.) and the Applied Biosystems 7500 Fast real-time PCR system and software. Human β-actin mRNA was used as the endogenous control. The ΔΔCT method was used to calculate relative expression levels. All qRT-PCR assays were carried out in triplicate and then repeated with new cDNA synthesis. Minus RT controls (reverse transcriptase negative cDNA synthesis reactions) were performed for at least one sample per plate.
Assay [10] deals with A2780 ovarian cancer cells. Kind of assay: qRT-PCR of AIM genes in A2780 after AZA or carboplatin. The conditions noted are these: 500 nM for 72 hours, then 7 days recovery without drug. As for the experimental part:
FIG. 9A-9D. AIM genes are induced by TSA but not by chemotherapeutic agents. […] FIG. 9B: Box plots of AIM genes after TSA treatment. FIG. 9C: Box plots of AIM genes in DKO cells compared to the parent HCT116 cell line. The orange lines indicate 2 fold change. FIG. 9D: A2780 ovarian cancer cells were treated with 500 nM AZA or carboplatin for 72 hours, then allowed to recover for 7 days without drug before RNA was isolated. qRT-PCR was performed for IFI27, IL-15, IRF7, and MAGEB2 genes. Blue bars indicate Mock treatment, purple indicate AZA, and orange indicate carboplatin. Fold change is plotted on the Y axis. Each bar represents the average and standard deviation of three biological replicates. […]
After total cellular RNA was extracted using the Trizol method (Life Technologies, Carlsbad, Calif.), RNA concentration was determined using the Nanodrop machine and software (Thermo Fisher Scientific, Rockville, Md.). 1 μg total RNA was used to generate cDNA with the QuantiTect Reverse Transcription Kit (Qiagen, Venlo, Netherlands). Quantitative reverse transcription PCR (q-RT-PCR) of CD274, DDX58, HLA-C, IFI6, IFI27, IL-15, IRF7, IRF9, MAEL, and MAGEB2 mRNA was performed using TaqMan assays (Life Technologies, Carlsbad, Calif.) and the Applied Biosystems 7500 Fast real-time PCR system and software. […]

For the next assay, the system named is colon cancer cell lines. As to the kind of experiment: AIM gene expression in colon cancer cell lines after TSA. The conditions noted are these: six colon cancer cell lines, 300 nM TSA for 18 hours. How it is done:
FIG. 9A-9D. AIM genes are induced by TSA but not by chemotherapeutic agents. […] FIG. 9B: Box plots of AIM genes after TSA treatment. FIG. 9C: Box plots of AIM genes in DKO cells compared to the parent HCT116 cell line. The orange lines indicate 2 fold change. FIG. 9D: A2780 ovarian cancer cells were treated with 500 nM AZA or carboplatin for 72 hours, then allowed to recover for 7 days without drug before RNA was isolated. qRT-PCR was performed for IFI27, IL-15, IRF7, and MAGEB2 genes. Blue bars indicate Mock treatment, purple indicate AZA, and orange indicate carboplatin. Fold change is plotted on the Y axis. Each bar represents the average and standard deviation of three biological replicates.
It is especially noteworthy that the DKO cell line (haplo-insufficient for DNMT1 and null for DNMT3B), which is shown as a genetic mimic of AZA treatment (FIG. 2B, FIG. 7) induces significant upregulation for most AIM genes (FIG. 9A, C). To determine whether this was specific to DNMT inhibitors, we also treated cells with an HDAC inhibitor (TSA) that has been used extensively in our laboratory. […] This activation appears to be in response to epigenetic agents and not the result of a general cell stress response that could be elicited by chemotherapeutics such as carboplatin.

The mark [11] stands for this setting: 500 nM AZA for three days, NES>2.15, FDR<0.25.

On to `Nc1ncn([C@@H]2O[C@H](CO)[C@@H](O)[C@H]2O)c(=O)n1` [AZA, 5-azacitidine], for which the “immune gene demethylation and re-expression (percent of cell lines)” value in [1] is on record as 42.8%; in assay [4], 53.8%; with breast cancer cell lines [6] it was 30.7%. Besides, the “immune gene sets showing upregulation by AZA (15/16 gene sets)” value in [2] (500 nM AZA for three days) is on record as 93.7%. For the same compound, in assay [2] (500 nM AZA for three days, NES<-2.15, FDR<0.25), the “downregulated GSEA gene sets common between the three cancer types” value was 52 gene sets. In [2] (setting [11]), the “upregulated GSEA gene sets common between the three cancer types” value came out at 80 gene sets. For the same compound, the “enrichment for immunomodulatory pathways in all three cancers” value in [2] (range over breast, colorectal, ovarian) was 14.4-31.3%. The “Overall immune pathway upregulation (percent of upregulated GSEA gene sets that are immune-related)” value turned out to be 16.9% with breast cancer cell lines [3] (setting [11]); 14.4% in assay [7] (setting [11]); 31.3% in [8] (ovarian cancers, 500 nM AZA for three days, NES>2.15, FDR<0.25). The “upregulation of cancer testis antigens gene set (percent of cell lines)” value stood at 19.2% with breast cancer cell lines [3] (GSEA NES>2.15, FDR<0.25); 64.3% in [7] (GSEA NES>2.15, FDR<0.25); 39.1% in assay [8] (ovarian, GSEA NES>2.15, FDR<0.25). The “gene sets common to breast, colon, and ovarian cell lines also upregulated in the lung cancer cell lines (76/80)” value in the assay on lung cancer cell lines is 95%. Also, in the assay with lung cancer cell lines, the “significantly upregulated pathways that were immune related” value was 23.3%. In assay [5], the “share of the 162 demethylated/re-expressed genes categorized as immune related” value was 26%. Further, the “subset of the 162 genes showing demethylation and re-expression in all three cancer types” value in assay [5] was 4.9%. Besides, the “number of the 162 demethylated/re-expressed genes also in AIM gene set” value in [5] (8 (4.9%)) was 8 genes. Besides, the “total number of demethylated (and re-expressed) genes” value in assay [5] (basal β ≥0.5, Δβ(AZA-Mock)≤-0.25, >2-fold expression) is 162 genes. Besides, the “qRT-PCR validation of AZA-induced re-expression of selected AIM (interferon response) genes” value in assay [9] was “Each chosen gene validated”. In addition, in assay [9], the “qRT-PCR validation of upregulation of selected antigen presentation pathway genes” value was “validated”. Further, in [10], the “expression of AIM genes IFI27, IRF7, IL15, MAGEB2 (qRT-PCR)” value was “increased”.

For the compound `CC(/C=C/C(=O)NO)=C\[C@@H](C)C(=O)c1ccc(N(C)C)cc1` [TSA], the “regulation of AIM genes” value with colon cancer cell lines was “regulates subsets of AIM genes but not as uniformly or robustly as DKO cells or AZA treated cells”.

Take `N.N.O=C([O-])C1(C(=O)[O-])CCC1.[Pt+2]` [carboplatin]: the “expression of AIM genes IFI27, IRF7, IL15, MAGEB2 (qRT-PCR)” value in assay [10] is recorded as “does not lead to overexpression”.
